Source: the OligoGym collection
HELM strings list units from the 5' end as sugar, base in round brackets, then linkage (d deoxyribose, r ribose, m 2'-O-methyl, p phosphodiester). Strings are as the collection lists them; they lack the last nucleoside at the 3' end of the tested compound. [moe] = 2'-O-(2-methoxyethyl) (MOE); [sp] = phosphorothioate linkage; [m5C] = 5-methylcytosine

target: PRNP; assay: mouse, dose not given; settings: ASO

Row | Substance | 3 h FOB score [score 0-7]
1 | RNA1{[moe](G)[sp].[moe](T)p.[moe]([m5C])p.[moe](A)p.[moe](G)p.[moe](T)p.d(T)[sp].d(T)[sp].d(T)[sp].d(T)[sp].d([m5C])[sp].d([m5C])[sp].d([m5C])[sp].d([m5C])[sp].d(A)[sp].d([m5C])[sp].[moe](A)p.[moe](T)[sp].[moe](A)}$$$$ (last 3' nucleoside missing) | 0
2 | RNA1{[moe]([m5C])[sp].[moe](T)p.[moe](A)p.[moe](T)p.[moe](G)p.[moe](T)p.d(T)[sp].d(T)[sp].d(T)[sp].d([m5C])[sp].d([m5C])[sp].d(A)[sp].d(G)[sp].d(T)[sp].d(G)[sp].d([m5C])[sp].[moe]([m5C])p.[moe]([m5C])[sp].[moe](A)}$$$$ (last 3' nucleoside missing) | 3.75
3 | RNA1{[moe](G)[sp].[moe]([m5C])p.[moe](A)p.[moe]([m5C])p.[moe](A)[sp].d([m5C])[sp].d(T)[sp].d(G)[sp].d(A)[sp].d([m5C])[sp].d([m5C])[sp].d(A)[sp].d(T)[sp].d(T)[sp].d(T)[sp].[moe](T)p.[moe](T)p.[moe](T)[sp].[moe](A)}$$$$ (last 3' nucleoside missing) | 0
4 | RNA1{[moe](A)[sp].[moe](A)p.[moe](G)p.[moe](G)p.[moe](T)[sp].d(T)[sp].d([m5C])[sp].d(G)[sp].d([m5C])[sp].d([m5C])[sp].d(A)[sp].d(T)[sp].d(A)[sp].d(A)[sp].d(T)[sp].[moe](G)p.[moe](A)p.[moe]([m5C])[sp].[moe](T)}$$$$ (last 3' nucleoside missing) | 5.25
5 | RNA1{[moe]([m5C])[sp].[moe](T)p.[moe](G)p.[moe]([m5C])p.[moe]([m5C])[sp].d(T)[sp].d(T)[sp].d(A)[sp].d(A)[sp].d(T)[sp].d(T)[sp].d(A)[sp].d([m5C])[sp].d([m5C])[sp].d(T)[sp].[moe](A)p.[moe](T)p.[moe](A)[sp].[moe](G)}$$$$ (last 3' nucleoside missing) | 0.25
6 | RNA1{[moe]([m5C])[sp].[moe]([m5C])p.[moe](A)p.[moe](T)p.[moe](T)[sp].d(T)[sp].d(T)[sp].d([m5C])[sp].d(T)[sp].d(G)[sp].d(T)[sp].d(G)[sp].d([m5C])[sp].d(T)[sp].d(T)[sp].[moe](T)p.[moe](T)p.[moe]([m5C])[sp].[moe]([m5C])}$$$$ (last 3' nucleoside missing) | 4
7 | RNA1{[moe]([m5C])[sp].[moe](G)p.[moe](T)p.[moe](T)p.[moe]([m5C])[sp].d(A)[sp].d(T)[sp].d([m5C])[sp].d(T)[sp].d(T)[sp].d(A)[sp].d(T)[sp].d(T)[sp].d([m5C])[sp].d([m5C])[sp].[moe]([m5C])p.[moe](A)p.[moe](T)[sp].[moe](T)}$$$$ (last 3' nucleoside missing) | 1
8 | RNA1{[moe](G)[sp].[moe](T)p.[moe](T)p.[moe]([m5C])p.[moe](T)[sp].d(A)[sp].d(A)[sp].d(T)[sp].d(T)[sp].d(T)[sp].d(T)[sp].d(A)[sp].d(G)[sp].d(A)[sp].d(T)[sp].[moe]([m5C])p.[moe](A)p.[moe](T)[sp].[moe](T)}$$$$ (last 3' nucleoside missing) | 2
9 | RNA1{[moe](A)[sp].[moe]([m5C])p.[moe](T)p.[moe](T)p.[moe](G)p.[moe](T)p.d([m5C])[sp].d(A)[sp].d(G)[sp].d(T)[sp].d(T)[sp].d(T)[sp].d(T)[sp].d(T)[sp].d([m5C])[sp].d([m5C])[sp].[moe]([m5C])p.[moe]([m5C])[sp].[moe](A)}$$$$ (last 3' nucleoside missing) | 0.25
10 | RNA1{[moe]([m5C])[sp].[moe](T)p.[moe](T)p.[moe](A)p.[moe]([m5C])[sp].d(T)[sp].d([m5C])[sp].d(G)[sp].d(G)[sp].d([m5C])[sp].d(T)[sp].d(T)[sp].d(G)[sp].d(T)[sp].d(T)[sp].[moe]([m5C])p.[moe]([m5C])p.[moe](A)[sp].[moe]([m5C])}$$$$ (last 3' nucleoside missing) | 0
11 | RNA1{[moe](G)[sp].[moe]([m5C])p.[moe](T)p.[moe](A)p.[moe](T)[sp].d(G)[sp].d(A)[sp].d(A)[sp].d(A)[sp].d(T)[sp].d([m5C])[sp].d(T)[sp].d([m5C])[sp].d(T)[sp].d(A)[sp].[moe]([m5C])p.[moe](T)p.[moe](A)[sp].[moe](A)}$$$$ (last 3' nucleoside missing) | 2.5
12 | RNA1{[moe](G)[sp].[moe](T)p.[moe](T)p.[moe]([m5C])p.[moe](A)[sp].d([m5C])[sp].d(T)[sp].d(G)[sp].d(T)[sp].d(G)[sp].d(A)[sp].d(A)[sp].d(T)[sp].d(A)[sp].d(T)[sp].[moe](G)p.[moe](T)p.[moe]([m5C])[sp].[moe]([m5C])}$$$$ (last 3' nucleoside missing) | 4.25
13 | RNA1{[moe](T)[sp].[moe]([m5C])p.[moe](T)p.[moe](T)p.[moe](A)[sp].d(G)[sp].d(A)[sp].d(T)[sp].d(T)[sp].d(T)[sp].d(T)[sp].d(T)[sp].d(G)[sp].d(G)[sp].d(A)[sp].[moe]([m5C])p.[moe](G)p.[moe](G)[sp].[moe](G)}$$$$ (last 3' nucleoside missing) | 4.5
14 | RNA1{[moe]([m5C])[sp].[moe]([m5C])p.[moe](T)p.[moe](G)p.[moe](T)[sp].d(T)[sp].d(A)[sp].d(A)[sp].d(T)[sp].d(G)[sp].d(G)[sp].d(T)[sp].d(G)[sp].d(T)[sp].d([m5C])[sp].[moe]([m5C])p.[moe](A)p.[moe]([m5C])[sp].[moe](T)}$$$$ (last 3' nucleoside missing) | 2.5
15 | RNA1{[moe]([m5C])[sp].[moe](A)p.[moe](A)p.[moe](G)p.[moe]([m5C])[sp].d(A)[sp].d(G)[sp].d(T)[sp].d(T)[sp].d([m5C])[sp].d(T)[sp].d(T)[sp].d(T)[sp].d(T)[sp].d([m5C])[sp].[moe](T)p.[moe](T)p.[moe](T)[sp].[moe](G)}$$$$ (last 3' nucleoside missing) | 2.25
16 | RNA1{[moe](G)[sp].[moe](T)p.[moe]([m5C])p.d(A)[sp].d(G)[sp].d(T)[sp].d(T)[sp].d(T)[sp].d(T)[sp].d(T)[sp].d([m5C])[sp].d([m5C])[sp].d([m5C])[sp].[moe]([m5C])p.[moe](A)p.[moe]([m5C])p.[moe](A)p.[moe](T)[sp].[moe](A)}$$$$ (last 3' nucleoside missing) | 0
17 | RNA1{[moe]([m5C])[sp].[moe](T)p.[moe]([m5C])p.[moe](A)p.[moe](G)[sp].d(G)[sp].d(T)[sp].d([m5C])[sp].d(T)[sp].d(A)[sp].d([m5C])[sp].d(T)[sp].d([m5C])[sp].d(T)[sp].d(A)[sp].[moe](T)p.[moe](G)p.[moe](T)[sp].[moe](T)}$$$$ (last 3' nucleoside missing) | 0
18 | RNA1{[moe](A)[sp].[moe](A)p.[moe]([m5C])p.[moe](A)p.[moe](T)[sp].d(T)[sp].d(T)[sp].d(G)[sp].d(A)[sp].d(T)[sp].d(T)[sp].d(T)[sp].d([m5C])[sp].d(A)[sp].d(A)[sp].[moe](G)p.[moe](T)p.[moe]([m5C])[sp].[moe]([m5C])}$$$$ (last 3' nucleoside missing) | 2.5
